In patent US11406103B2, “Sanitizing rinse based on quat-anionic surfactant synergy” (Ecolab USA Inc., priority 2016, dated 2022):
Entries after “also recorded” stand apart in the source; their conditions may differ. Like-named read-outs stand apart in the source and are kept apart here.

Tests used:
[1] = system: Escherichia coli ATCC 11229; assay: Low temperature warewash sanitizing rinse test; type: cell-based; conditions: anionic surfactant paired with quaternary ammonium compound, in this study
Protocol: The sanitizing efficiency was determined for the experimental formulas of Table 8A-8B using the following procedure: • 1.) Set up low temperature ware wash machine to our specific settings (see 7-cycle procedure) • a. Set water Temperature (120° F.) • b. Check water Hardness (4-6 gpg) • c. Set water flow rate • d. Hand dose in chemistry, no need to set up (50 ppm Quat, 50 ppm Bleach) • e. Watch these variables throughout tests • 2.) Have 10 processed Libby glasses for each tested chemistry run • a. 5 will be unwashed controls • b. 5 will be washed to detect kill • 3.) Have enough sterile tubs to hold glasses—supplied by Micro • a. Max 20 glasses per tub, or 2 runs • 4.) Have enough swabs to collect specimen—supplied by Micro • a. Need 2 per run or 1 swab per 5 glasses • 5.) Have 1 buffer solution tube per 5 glasses, 2 per run • 6.) Have Micro bring in an E. coli suspension • 7.) Get 10 glasses ready in easy reach • 8.) Fill one glass, an inch from the top, with E. coli suspension • a. Start timer for 10 minutes at this point • 9.) Pour E. coli Suspension from first glass into second glass, from second glass into third, and so on • 10.) Dip the top inch of each soiled glass into E. coli suspension to coat rim • 11.) Set glasses upside down in a sterile tub and let dry for 10 minutes • 12.) Swab 5 of the 10 glasses as your test control group • a. […]

[2] = Glewwe foam test; type: physicochemical
Protocol: A test was run to determine the foam profiles of the five quat solutions of Example 1. A Glewwe foam apparatus in combination with the following procedure was used for this test. First, each quat was prepared and gently poured into a Glewwe cylinder. Samples tested contained a concentration of 50 ppm of the indicated antimicrobial quats. A ruler was attached to the side of the cylinder, and the solution was level with the bottom of the ruler. The pump was turned on. Foam height was estimated by reading the average level of foaming according to the ruler. Foam height readings were taken versus time with a stopwatch or timer. The pump was turned off and height of the foam was recorded at various times. […] The foam level was read after 15 seconds of agitation and again after 60 seconds of agitation for a given amount of time. A stable foam is defined when the foam remains for several minutes after agitation is stopped. A partially stable foam breaks slowly within a minute. An unstable foam breaks rapidly in less than 15 seconds. A desirable rinse should have unstable foam to no foam. In contrast, antimicrobial hand soap should have stable foam.
The results from the foaming test are shown in FIG. 2, and described in Table 3 below.
Another foam evaluation test was run using the procedure described in Example 2.
The inclusion of additional additives (defoamer and solubilizer/booster, such as Emulsogen) to the Quat-Anionic surfactant pairs were also analyzed, provided in Table 5 below (5A-5B), using the procedure described in Example 2.

[3] = Dynamic surface tension (SITA science line t60, bubble pressure); type: physicochemical
Protocol: The SITA science line t60 measures the dynamic surface tension of liquids up to the semi-static range. Air bubbles are generated from a capillary with known radius. The bubble pressure is measured as a function of bubble life time, which can be correlated to the surface tension according to the Young-Laplace equation. […] The dynamic surface tension behavior of surfactants is particularly important in applications where a quick response of surfactant is required, for example, in short rinse cycles of automated dishwashing.
The SITA science line t60 was calibrated with DI water. […] Following calibration, the SITA was programmed to take readings at the desired time intervals (i.e., 0.3, 1.6, 3.0, 9.1 seconds).
10-15 mL were transferred into 20 mL vials and immersed in a water bath to 25° C.±2° C. The samples were equilibrated for 10-15 minutes. The samples were individually tested. After each sample was tested the SITA's cleaning procedure was run, then the surface tension of DI water was checked to ensure the SITA was adequately clean. If the DI water measurements were not within 72.0±1.0 mN/m, then the cleaning procedure was run again. […]

Molecule | antimicrobial synergy with quat, in words [1] | Foaming Profile [2] | Dynamic Surface Activity [3] | further results
CCCCCCCCCC(=O)O [Decanoic acid] | best antimicrobial synergy | – | – | –
Dioctyl (C8) dimethyl ammonium chloride [Bardac LF80] | – | 5 | 5 | foam profile, in words [2]: lowest foam profile; Dynamic surface tension [3]: 69 mN/m; dynamic surface tension / surface activity, in words [3]: least surface active; also recorded: very low surface activity; also recorded: very little surface activity
CCCCCCCC(=O)O [Octanoic acid] | best antimicrobial synergy | – | – | –
Alkyl Benzyl ammonium chloride [Uniquat QAC-50] | – | – | – | Foaming Profile ([2]; ranking 1-5, Glewwe Foam Test, 50 ppm Quat, 6psi, 140° F.): 1; Dynamic Surface Activity ([3]; ranking 1-5 among five quats, 100 ppm quat, 75° F.): 3
Didecyl (C10) dimethyl ammonium chloride [Bardac 2250] | – | 3 | 1 | –
